Values quoted from earlier work, collected in patent US9961900B2, “Herbicide formulations” (priority 2012, dated 2018).
Read-outs that look alike come from different tables or passages of the source. Values belong to the molecule of their own block, whether it stands above or below them.

Columns and labels:
[1] = not given; remark: listed apart in the source
[2] = for Aqueous hydrolysis: at pH 7 and 20° C.
[3] = not given; remark: listed apart in the source

SMILES: CC(Oc1ccc(Oc2ccc(Cl)cc2Cl)cc1)C(=O)O (racemic) [diclofop, (RS)-2-[4-(2,4-dichlorophenoxy)phenoxy]propionic acid]
log P (octanol-water) (pH 5): log P = 2.81 | log P (octanol-water) (pH 7): log P = 1.61

log P (octanol-water) (20° C.): log P = 4.5 | Solubility in water ([1]; pH 6.5): Water: 1 mg/L at pH 6.5
SMILES: CCCCOC(=O)C(C)Oc1ccc(Oc2ccc(C(F)(F)F)cn2)cc1 (racemic) [fluazifop-butyl, butyl (RS)-2-{4-[5-(trifluoromethyl)-2-pyridyloxy]phenoxy}propionate]
Solubility in propylene glycol ([1]; 20° C.): dichloromethane, and xylene. Propylene glycol, 24 g/L

SMILES: CCON=C(CC)C1=C(O)CC(c2c(C)cc(C)cc2C)CC1=O (racemic) [tralkoxydim, (RS)-2-[(EZ)-1-(ethoxyimino)propyl]-3-hydroxy-5-mesitylcyclohex-2-en-1-one]
Aqueous hydrolysis (DT50) ([2]; 20° C. and pH 7): at 20 °C and pH 7: 140 days | Hydrolysis DT50 ([2]; pH 5, 25° C.): pH sensitive: DT50 9 days at pH 5, | Aqueous hydrolysis stability ([2]; pH 9): stable at pH 9, all at 25° C.^+ | Aqueous photolysis DT50 ([3]; pH 7): Aqueous photolysis DT50 at pH 7: 5.8 days 5.8 ^+ | Solubility in water ([1]; pH 5.2): 6.7 mg/L at 22 °C (pH 5.2) | Solubility in water ([1]; pH 6.5): 6.1 mg/L at 22 °C (pH 6.5) | Solubility in water ([1]; pH 9): 9820 mg/L at 22 °C (pH 9.0)

SMILES: CCCCOC(=O)[C@@H](C)Oc1ccc(Oc2ccc(C#N)cc2F)cc1 [cyhalofop-butyl, butyl (R)-2-[4-(4-cyano-2-fluorophenoxy)phenoxy]propionate]
Aqueous hydrolysis (DT50) ([2]; 20° C. and pH 7): Aqueous hydrolysis DT50 at 20 °C and pH 7: 97 days | Aqueous hydrolysis stability ([2]; pH 4, 25° C.): Stable | Hydrolysis DT50 ([2]; pH 9, 25° C.): 2 days | log P (octanol-water) (pH 7, 20° C.): log P = 4.8

Hydrolysis DT50 ([2]; pH 5, 25° C., darkness): Stable | Hydrolysis DT50 ([2]; pH 9, 25° C., darkness): 1.21 days | Aqueous photolysis DT50 ([3]; pH 7): Aqueous photolysis DT50 at pH 7: 6 days
SMILES: CCCCOC(=O)[C@@H](C)Oc1ccc(Oc2ccc(C(F)(F)F)cn2)cc1 [fluazifop-P-butyl, butyl (R)-2-{4-[5-(trifluoromethyl)-2-pyridyloxy]phenoxy}propionate]
Aqueous hydrolysis (DT50) ([2]; 20° C. and pH 7): Aqueous hydrolysis DT50 (days) at 20 °C and pH 7: 78

SMILES: COc1cc(OC)n2nc(S(=O)(=O)Nc3c(Cl)ccc(C)c3Cl)nc2n1 [metosulam]
Aqueous hydrolysis [2]: Stable | Photolytic stability DT50 ([3]; pH 7): DT50: 31.1 d

SMILES: COC(=O)c1ccccc1S(=O)(=O)NC(=O)Nc1nc(C)nc(OC)n1 [metsulfuron-methyl]
Aqueous hydrolysis (DT50) ([2]; at pH 5): 2 days | Aqueous hydrolysis (DT50) ([2]; at pH 7): Stable | Photolytic stability DT50 ([3]; pH 7): Stable

SMILES: COc1cc(OC)nc(NC(=O)NS(=O)(=O)c2ncccc2C(=O)N(C)C)n1 [nicosulfuron]
Aqueous hydrolysis (DT50) ([2]; at pH 5): 15 days | Aqueous hydrolysis (DT50) ([2]; at pH 7): Stable | Photolytic stability DT50 ([3]; at pH 7): DT50: 202 d

SMILES: COc1cnc(OC)n2nc(NS(=O)(=O)c3c(OCC(F)F)cccc3C(F)(F)F)nc12 [penoxsulam]
Aqueous hydrolysis [2]: Stable (at pH 7 and 20° C.) | Photolytic stability DT50 ([3]; pH 7): DT50: 2 d (at pH 7)

Aqueous hydrolysis [2]: Stable (“”) | Photolytic stability DT50 ([3]; pH 7): DT50: 3.2 d (“”)
SMILES: COc1cc(OC)n2nc(NS(=O)(=O)c3c(C(F)(F)F)ccnc3OC)nc2n1 [pyroxsulam]

SMILES: C[C@@H](Oc1ccc(Oc2cnc3cc(Cl)ccc3n2)cc1)C(=O)OCC1CCCO1 (stereo partly drawn) [quizalofop-P-tefuryl]
Aqueous hydrolysis (DT50) ([2]; 20° C. and pH 7): Aqueous hydrolysis DT50 at 20 °C and pH 7: 18.2 days | Hydrolysis DT50 ([2]; pH 5.1, 22° C.): 8.2 days | Hydrolysis DT50 ([2]; pH 9.2, 22° C.): 0.3 days | Aqueous photolysis DT50 ([3]; pH 7): Aqueous photolysis DT50 at pH 7: 1.0 days

SMILES: COC(=O)c1ccccc1S(=O)(=O)NC(=O)N(C)c1nc(C)nc(OC)n1 [tribenuron-methyl]
Aqueous hydrolysis (DT50) ([2]; at pH 5): 2.2 days | Aqueous hydrolysis (DT50) ([2]; at pH 7): 16 | Photolytic stability DT50 ([3]; pH 7): Stable
